Values quoted from earlier work, collected in paper PMC11910062 (Drug Design, Development and Therapy, 2025).

What was measured:
[1] = CLEAR Outcomes study
[2] = ref submission materials for new drug application

## CC(C)(CCCCCC(O)CCCCCC(C)(C)C(=O)O)C(=O)O [Nexletol, bempedoic acid]
[1]
  4 major adverse cardiovascular events (4-MACE) reduction compared with placebo group: −13%
[2]; 180 mg dose of Nexletol
  Cmax: 19950 ng/mL
[2]; 180 mg of Nexletol
  LDL-C reduction: 26%
